# pIC50: −log10 of the molar value.
# Key:
# [1] = test system: HepG2 cells; assay: Phase contrast microscopy of morphological changes in HepG2 cells; format: cell-based, human
# Experimental: FIG. 2A is a graph comparison of IC50 of Uttroside B in a panel of cancer cells of different origin. The cancer cell lines HeLa, A375, HepG2, MDA-MB-231, HL 60, A549 and HCT116 were treated with Uttroside B as indicated, incubated for 72 h and the cell viability was assessed by MTT assay. FIG. 2B is a graph showing dose dependent effect of Uttroside B in the liver cancer cell lines and in normal immortalized hepatocytes. The liver cancer cell lines HepG2, Hep3B, SKHEP-1, Huh-7 and normal hepatocytes (Chang liver), were treated with Uttroside B incubated for 72 h and the cell viability was assessed by MTT assay. FIG. 2C is a graph comparison of IC50 of Uttroside B with sorafenib. HepG2 cells were treated with Uttroside B as indicated, incubated for 72 h, and the cell viability was assessed by MTT assay. FIG. 2D is an image of the morphological changes induced by Uttroside B in HepG2 cells. […] FIG. 2E is an image showing Uttroside B inhibits the clonogenic potential of HepG2 cells. HepG2 cells were treated with different concentrations of Uttroside B for 72 h and the clonogenic assay was performed. FIG. 2F is a graph comparison of efficacy of Uttroside B in inhibiting the clonogenic potential of HepG2 cells. The clones developed were counted and plotted as a graph. Colony containing more than four cells was counted as one clone. […]
# [2] = test system: Swiss albino mice; assay: Acute toxicity study; format: in vivo
# Experimental: Toxicological evaluation:a. Animals: Six to eight-week-old female Swiss albino mice (18-22 g) were obtained from the Animal Research Facility of Rajiv Gandhi Centre for
# Biotechnology and the study was performed under protocols approved by Institutional Animal Ethical Committee of Rajiv Gandhi Centre for Biotechnology (IAEC No: 151 (a)/RUBY/2012) b. Acute toxicity study: Swiss albino mice were randomly divided into 3 groups of 6 animals each and were allowed to acclimatize for a week. Group I was taken as the control, which received only vehicle, while Group II and III received a single dose of Uttroside B dissolved in PBS (10 mg/kg and 50 mg/Kg body weight respectively). The mice were observed continuously for 1 h, for any gross behavioral changes and death, and then intermittently for the next 6 h and 24 h. The animals were observed frequently for the next 7 days from the day of treatment after which, the animals were euthanized in a CO2 chamber. The blood serum was collected for analyzing biochemical parameters of liver function, the abnormal values of which are indicative of toxicity. The liver was fixed in 10% buffered formalin and the thin cryostat sections (LEICA CM 1850UV Cryostat) were stained with haematoxylin and eosin for histopathological evaluation.^17
# [3] = test system: hepatocellular carcinoma cells (HepG2, Hep3B, SKHep1, and Huh-7); assay: MTT assay in different hepatocellular carcinoma cells; format: cell-based; settings: SKHep1, Huh-7, 72 h, read-out: IC50 in liver cancer cells
# Experimental: FIG. 2A is a graph comparison of IC50 of Uttroside B in a panel of cancer cells of different origin. The cancer cell lines HeLa, A375, HepG2, MDA-MB-231, HL 60, A549 and HCT116 were treated with Uttroside B as indicated, incubated for 72 h and the cell viability was assessed by MTT assay. FIG. 2B is a graph showing dose dependent effect of Uttroside B in the liver cancer cell lines and in normal immortalized hepatocytes. The liver cancer cell lines HepG2, Hep3B, SKHEP-1, Huh-7 and normal hepatocytes (Chang liver), were treated with Uttroside B incubated for 72 h and the cell viability was assessed by MTT assay. FIG. 2C is a graph comparison of IC50 of Uttroside B with sorafenib. HepG2 cells were treated with Uttroside B as indicated, incubated for 72 h, and the cell viability was assessed by MTT assay. […] The clones developed were counted and plotted as a graph. Colony containing more than four cells was counted as one clone. […]
# MTT [3-(4,5-dimethylthiazole-2-yl)-2,5-diphenyltetrazolium bromide] assay is a standard colorimetric assay, suitable for analyzing proliferation, viability, and cytotoxicity. […] After overnight incubation, cells were treated with different concentrations of organic extracts (25-250 μg/ml) of S. nigrum and the isolated compound Uttroside B (250-1250 nM) for 72 h and cytotoxicity was measured. […]
# [4] = 10 mg/kg and 50 mg/kg single dose
compound,measurement,setting,value
C[C@H](CC[C@@]1(O)O[C@H]2C[C@H]3[C@@H]4CC[C@H]5C[C@@H](O[C@@H]6O[C@H](CO)[C@H](O[C@@H]7O[C@H](CO)[C@@H](O)[C@H](O[C@@H]8OC[C@@H](O)[C@H](O)[C@H]8O)[C@H]7O[C@@H]7O[C@H](CO)[C@@H](O)[C@H](O)[C@H]7O)[C@H](O)[C@H]6O)CC[C@]5(C)[C@H]4CC[C@]3(C)[C@H]2[C@@H]1C)CO[C@@H]1O[C@H](CO)[C@@H](O)[C@H](O)[C@H]1O [Uttroside B],morphological changes characteristic of apoptosis,"[1]; 72 h, dose dependent","Nuclear condensation, membrane blebbing and formation of apoptotic bodies"
same,vacuole formation,"[1]; HepG2, 24 h",induces vacuole formation
same,"histopathological analysis of liver tissue, acute",[2]; 10 mg/kg and 50 mg/kg,did not manifest any morphological change characteristic of toxicity
same,behavior,[2]; [4],did not exhibit any abnormal behavior
same,"serum levels of AST, ALT and ALP",[2]; [4],did not show any deviation in the serum levels
same,liver tissue changes at five times the treatment dose,"[2]; 50 mg/kg, acute, reversible changes",micro vesicular fatty changes
same,"gross adverse response (body weight, fur, behavior, food intake)",[2]; up to 5 times dose,failed to exhibit any signs of cumulative adverse response
same,pIC50,[3],6.22 to 6.40
